Assay results published in patent US8486465B1 (priority 2007, dated 2013).

Tested on: Human breast cancer MCF-7 cells
Assay: Apoptosis of MCF-7 cells by Propidium Iodide technique measured by flow cytometry
Format: cell-based
Conditions: NOE 0
Text: Cell Culture. […] Levels of apoptosis (cell death) were then examined using the Propidium Iodide technique as measured by flow cytometry using a FACscan (BD Biosciences, San Jose, Calif.). Forward (FSC) and Side scatter (SSC) were used to gate the cells.
(§1) FIGS. 1A, 1C, 1E, and 1G are dot plots which show the populations of cells grown under the particular culture conditions described below, while FIGS. 1B, 1D, 1F, and 1H respectively are the corresponding frequency histograms showing the total population of apoptotic MCF-7 cancer cells for each culture.
as §1, with “2A, 2C, 2E,” for “1A, 1C, 1E,”, “2G” for “1G”, “[…]” for “1B, 1D, 1F,”, “2B, 2D, 2F and 2H” for “1H”

[1] = GSH 5 mM alone, MCF-7, 24 hours (Table 1, Example 2)
[2] = GSH 10 mM alone, MCF-7, 24 hours (Table 2, Example 3)

With `N[C@@H](CCC(=O)N[C@@H](CS)C(=O)NCC(=O)O)C(=O)O` [GSH, Glutathione] the “% cell death” value [1] was 20%, the “% cell death relative to control” value [1] was 11% and the “% cell survival” value [1] was 80%. For the same molecule, the “% cell survival relative to Control” value [1] was 98%, the “% cell death” value [2] was 10% and the “% cell death relative to control” value [2] was 96%. The “% cell survival” value [2] was 90% and the “% cell survival relative to Control” value [2] was 95%.
